Laboratory results: patent EP1808172A2, “Botanical extract compositions and methods of use” (The Medical Research and Education Trust, priority 2002, dated 2003)

Experiments:
Type in all cases: cell-based
hERα = target: T1, hERα (Homo sapiens, UniProt P03372); experiment: ERE-LUC reporter gene activation in transfected HEK 293 cells, ER alpha; details: 0 to 9 µg/ml, 20 hours
T1 construct: expressed in transfected cells; host or cells: HEK 293 cells (ATCC CRL-1573)
Source text: (§1) HEK 293 cells (ATCC CRL-1573) were transfected with an expression vector for hERα and hERβ respectively, and an ERE-LUC reporter gene (plus a TK-LUC reporter for normalization) following the protocol of Yoon et al ("Differential activation of wild-type and variant forms of estrogen receptor α by synthetic and natural estrogenic compounds using a promoter containing three estrogen-responsive elements", J. Steroid Biochem. & Molecular Biology (2000), 28: pages 25-32).

LNCaP cell cycle = experiment: Cell cycle measurement by DNA content flow cytometry, LNCaP; details: LNCaP cells, exposed 24-48 hours
Procedure: (§2) The cells were washed with phosphate buffered saline (PBS) and fixed in ice-cold 70% ethanol. Aliquots of fixed cells were rehydrated in PBS and stained with 1.0 microgram/milliliter DAPI (4,6-diamidino-2-phenylindole from Eastman Kodak, Rochester, NY), and dissolved in 10 millimolar piperazine-NN-bis-2-ethane-sulfonic acid buffer (Calbiochem, La Jolla, CA) containing 100 millimolar NaCl, 2mM MgCl2 and 0,1% Triton X-100 (Sigma) at pH 6.8 as previously described by Halicka et al. (H. D. Halicka, B. Ardelt, G. Juan, A. Mittelman, S. Chen, F. Traganos and Z. Darzynkiewicz, "Apoptosis and Cell Cycle Effects Induced by Extracts of the Chinese Herbal Preparation of PC SPES", International J. of Oncology (1997), 11: 437-448).
(§3) The cellular DNA content was measured with an ELITE ESP flow cytometer (Coulter Inc., Fl.) using UV laser illumination. The multicycle program was used to deconvolute the DNA frequency histograms to estimate the frequency of cells in different phases of the cell cycle.

hERβ = target: T2, hERβ (Homo sapiens, UniProt Q92731); experiment: ERE-LUC reporter gene activation in transfected HEK 293 cells, ER beta; details: 0 to 9 µg/ml, 20 hours
T2 construct: expressed in transfected cells; host or cells: HEK 293 cells (ATCC CRL-1573)
T2 sequence (Q92731 whole entry): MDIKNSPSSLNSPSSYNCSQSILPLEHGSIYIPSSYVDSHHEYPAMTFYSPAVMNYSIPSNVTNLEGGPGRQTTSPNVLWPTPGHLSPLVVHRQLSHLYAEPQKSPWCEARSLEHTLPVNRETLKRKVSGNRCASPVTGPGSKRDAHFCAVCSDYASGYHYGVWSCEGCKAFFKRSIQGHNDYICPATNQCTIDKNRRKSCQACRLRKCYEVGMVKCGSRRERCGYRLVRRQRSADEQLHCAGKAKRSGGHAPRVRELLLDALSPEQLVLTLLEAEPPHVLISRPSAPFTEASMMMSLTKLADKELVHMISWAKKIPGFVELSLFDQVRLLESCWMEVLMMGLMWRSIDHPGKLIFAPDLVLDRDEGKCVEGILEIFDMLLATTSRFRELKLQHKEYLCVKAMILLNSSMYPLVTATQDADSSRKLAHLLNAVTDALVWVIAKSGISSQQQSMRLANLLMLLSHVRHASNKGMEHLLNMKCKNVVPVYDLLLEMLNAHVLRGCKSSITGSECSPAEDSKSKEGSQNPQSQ
Source text: as §1

DU-145 cell cycle = experiment: Cell cycle measurement by DNA content flow cytometry, DU-145; details: DU-145 cells, protocol of Example 3
Procedure: as §2, §3
A prolongation in the G2M phase leads to the suppression of DU-145 cell proliferation.

T1 sequence (P03372 whole entry): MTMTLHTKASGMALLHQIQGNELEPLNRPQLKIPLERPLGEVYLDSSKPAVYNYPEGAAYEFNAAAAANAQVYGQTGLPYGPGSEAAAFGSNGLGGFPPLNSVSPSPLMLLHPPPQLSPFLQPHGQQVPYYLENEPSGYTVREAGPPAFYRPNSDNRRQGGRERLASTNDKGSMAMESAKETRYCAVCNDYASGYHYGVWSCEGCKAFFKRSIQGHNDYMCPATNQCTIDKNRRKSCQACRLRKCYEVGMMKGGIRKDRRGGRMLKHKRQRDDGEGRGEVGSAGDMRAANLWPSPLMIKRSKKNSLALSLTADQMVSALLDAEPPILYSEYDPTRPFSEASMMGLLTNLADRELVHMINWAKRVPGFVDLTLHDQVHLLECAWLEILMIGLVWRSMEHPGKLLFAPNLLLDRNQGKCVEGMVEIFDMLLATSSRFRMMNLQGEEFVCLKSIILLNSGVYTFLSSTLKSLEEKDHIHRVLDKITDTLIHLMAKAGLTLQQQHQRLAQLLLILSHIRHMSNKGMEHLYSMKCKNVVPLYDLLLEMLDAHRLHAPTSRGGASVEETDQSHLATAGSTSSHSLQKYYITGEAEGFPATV

| SMILES | ERα-Luc reporter gene activation (hERα) | effect on G1, S, and G2M phases of the LNCaP cell cycle (LNCaP cell cycle) | ERβ-Luc reporter gene activation (hERβ) | effect on the DU-145 cell cycle (DU-145 cell cycle) |
| --- | --- | --- | --- | --- |
| COc1c(O)cc(O)c2c(=O)cc(-c3ccccc3)oc12 [Wogonin, 5,7-dihydroxy-8-methoxy-flavone] | activated | induced a G1 phase arrest | activated | prolonged the G2M phase |
| O=C(/C=C/c1ccc(O)cc1)c1ccc(O)cc1O [isoliquiritigenin, 2',4,4'-trihydroxychalcone] | activated | induced a G2M phase arrest | activated |  |
